Data published in patent publication US6936609B2, “Imidazotriazines for use as phosphodiesterase inhibitors” (Bayer HealthCare AG, priority 2001, dated 2005).

Assays:
PDE 10A = biological target: T1, PDE 10A (Homo sapiens, UniProt Q9Y233); test: Inhibition of PDE 10A (in vitro enzyme inhibition test); format: biochemical; conditions: recombinant full-length PDE10A expressed in Sf9 insect cells; substrate [5',8-3H] adenosine 3',5'-cyclic phosphate; 60 min at room temperature; scintillation proximity beads
T1 construct: is expressed recombinantly in full length in Sf9 insect cells; made in house; host or cells: Sf9 insect cells (Bac-to-Bac baculovirus system); lysate supernatant used as the enzyme preparation
T1 sequence (Q9Y233 1-779 isoform Q9Y233-1): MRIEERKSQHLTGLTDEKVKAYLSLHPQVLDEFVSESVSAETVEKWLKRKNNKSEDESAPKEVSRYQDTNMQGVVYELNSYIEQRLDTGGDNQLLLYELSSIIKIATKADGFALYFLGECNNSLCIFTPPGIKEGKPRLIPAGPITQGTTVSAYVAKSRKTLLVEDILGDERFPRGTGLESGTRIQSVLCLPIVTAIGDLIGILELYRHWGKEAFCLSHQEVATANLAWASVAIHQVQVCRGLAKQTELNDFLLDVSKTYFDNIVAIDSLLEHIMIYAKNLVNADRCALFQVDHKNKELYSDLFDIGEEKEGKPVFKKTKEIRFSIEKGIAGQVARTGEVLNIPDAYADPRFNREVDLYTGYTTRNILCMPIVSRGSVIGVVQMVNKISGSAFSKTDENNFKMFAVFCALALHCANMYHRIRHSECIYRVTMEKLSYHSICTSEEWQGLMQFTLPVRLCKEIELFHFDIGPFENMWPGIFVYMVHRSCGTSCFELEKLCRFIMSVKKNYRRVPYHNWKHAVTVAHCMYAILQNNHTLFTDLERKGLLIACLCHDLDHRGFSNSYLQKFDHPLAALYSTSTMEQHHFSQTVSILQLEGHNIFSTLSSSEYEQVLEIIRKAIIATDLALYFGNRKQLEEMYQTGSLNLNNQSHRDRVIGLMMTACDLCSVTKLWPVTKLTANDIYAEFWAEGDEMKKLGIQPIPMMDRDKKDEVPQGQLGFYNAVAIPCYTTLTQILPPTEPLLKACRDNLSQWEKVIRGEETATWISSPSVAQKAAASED
Description: PDE10A (WO 01/29 199, FIG. 1A) is expressed recombinantly in full length in Sf9 insect cells (Invitrogen, Carlsbad, Calif.) with the aid of the Bac-to-Bac™ Baculovirus expression system of Life Technologies (Gaithersburg, Md.). 48 h after the infection, the cells are harvested and suspended in 20 ml (per 1 l of culture) of lysis buffer (50 mM tris HCl, pH 7.4, 50 mM NaCl, 1 mM MgCl2, 1.5 mM EDTA, 10% glycerol plus 20 μl of Protease Inhibitor Cocktail Set III [CalBiochem, La Jolla, Calif. USA]). The cells are treated at 4° C. for 1 minute with ultrasound and subsequently centrifuged at 10000 rpm for 30 minutes at 4° C. The supernatant (PDE10A preparation) was collected and stored at −20° C.
The test substances are dissolved and serially diluted in 100% DMSO for the determination of their in vitro action on PDE 10A. Typically, dilution series of 200 μM to 1.6 μM are prepared (resulting final concentrations in the test: 4 μM to 0.032 μM). In each case, 2 μl of the diluted substance solutions are introduced into the wells of microtitre plates (Isoplate; Wallac Inc., Atlanta, Ga.). 50 μl of a dilution of the PDE10A preparation described above are subsequently added. The dilution of the PDE10A preparation is chosen such that during the later incubation less than 70% of the substrate is reacted (typical dilution: 1:10000; dilution buffer: 50 mM tris/HCl pH 7.5, 8.3 mM MgCl2, 1.7 mM EDTA, 0.2% BSA). The substrate, [5′,8-^3H] adenosine 3′, 5′-cyclic phosphate (1 μCi/μl; Amersham Pharmacia Biotech., Piscataway, N.J.) is diluted 1:2000 to a concentration of 0.0005 μCi/μl with assay buffer (50 mM tris/HCl pH 7.5, 8.3 mM MgCl2, 1.7 mM EDTA). The enzyme reaction is finally started by addition of 50 μl (0.025 μCi) of the diluted substrate. The test batches are incubated at room temperature for 60 min and the reaction is stopped by addition of 25 μl of a suspension containing 18 mg/ml of Yttrium Scintillation Proximity Beads (Amersham Pharmacia Biotech., Piscataway, N.J.). The microtitre plates are sealed using a film and allowed to stand at room temperature for 60 min. The plates are subsequently measured for 30 s per well in a Microbeta scintillation counter (Wallac Inc., Atlanta, Ga.). IC50 values are determined with the aid of graphic plotting of the substance concentration against the percentage inhibition.

Structure (SMILES)	IC50 (PDE 10A)	melting point
COc1cc(Nc2nc(-c3ccc(C)cc3)nn3c(C)nc(C)c23)cc(OC)c1OC [Example 53, N-[5,7-Dimethyl-2-(4-methylphenyl)imidazo[5,1-f][1,2,4]triazin-4-yl]-N-(3,4,5-trimethoxyphenyl)amine]	45 nM	212 to 214 °C
COc1ccc(Nc2nc(-c3ccc(OC)c(OC)c3)nn3c(C4CCCC4)nc(C)c23)c(OC)c1 [Example 18, N-[7-Cyclopentyl-2-(3,4-dimethoxyphenyl)-5-methylimidazo[5,1-f][1,2,4]triazin-4-yl]-N-(2,4-dimethoxyphenyl)amine]	91 nM	244 °C
COc1ccc(-c2nc(SCc3cccnc3)c3c(C)nc(C4CCCC4)n3n2)cc1OC [Example 12, 7-Cyclopentyl-2-(3,4-dimethoxyphenyl)-5-methyl-4-[(3-pyridinylmethyl)sulphanyl]-imidazo[5,1-f][1,2,4]triazine]	460 nM	–
COc1cc(Nc2nc(-c3ccc(Br)cc3)nn3c(C)nc(C)c23)cc(OC)c1OC [Example 48, N-[2-(4-Bromophenyl)-5,7-dimethylimidazo[5,1-f][1,2,4]triazin-4-yl]-N-(3,4,5-trimethoxyphenyl)amine]	68 nM	219 to 220 °C
COc1ccc(-c2nc(Nc3cc(OC)c(OC)c(OC)c3)c3c(C)nc(C4CCCC4)n3n2)cc1S(=O)(=O)N1CCOCC1 [Example 24, 7-Cyclopentyl-2-[4-methoxy-3-(4-morpholinylsulphonyl)phenyl]-5-methyl-N-(3,4,5-trimethoxyphenyl)imidazo[5,1-f][1,2,4]triazin-4-amine]	13 nM	–
COc1ccc(Nc2nc(-c3ccc(OC)c(OC)c3)nn3c(C4CCCC4)nc(C)c23)cc1Cl [Example 16, N-(3-Chloro-4-methoxyphenyl)-7-cyclopentyl-2-(3,4-dimethoxyphenyl)-5-methyl-imidazo[5,1-f][1,2,4]triazin-4-amine]	210 nM	–
COc1cc(CNc2nc(-c3ccc(OC)c(OC)c3)nn3c(C)nc(C)c23)cc(OC)c1 [Example 3, N-(3,5-Dimethoxybenzyl)-2-(3,4-dimethoxyphenyl)-5,7-dimethylimidazo[5,1-f]-[1,2,4]triazin-4-amine]	360 nM	–
CCCc1nc(C)c2c(Nc3cccc(O)c3)nc(-c3ccccc3OCC)nn12 [Example 43, 3-{[2-(2-Ethoxyphenyl)-5-methyl-7-propylimidazo[5,1-f][1,2,4]triazin-4-yl]-amino}phenol]	2400 nM	–
